Data set [1] is filed under the species Homo sapiens. The data set can be described thus: Antitumor activity in patient with EGFR T790M mutant NSCLC assessed as disease control rate at 500 mg BID during phase 1/2 study. The format is functional.
For data set [2], the species on record is Homo sapiens. The data set is described as follows: Toxicity in patient with EGFR T790M mutant NSCLC assessed as induction of grade 3 QTc prolongation at 500 mg BID during phase 1/2 study. The format is organism-based. Particulars: in vivo.
The species named for data set [3] is Homo sapiens. The data set can be described thus: Antitumor activity in patient with EGFR T790M mutant negative NSCLC assessed as overall response rate at 500 mg BID during phase 1/2 study. The format is functional.
Data set [4] is filed under the species Homo sapiens. The data set can be described thus: Toxicity in patient with EGFR T790M mutant NSCLC assessed as induction of grade 3 hyperglycemia at 500 mg BID during phase 1/2 study. Particulars: in vivo. The class given is organism-based.
Data set [5] is filed under the species Homo sapiens. The data set is described as follows: Antitumor activity in patient with EGFR T790M mutant NSCLC assessed as objective response rate at 500 mg BID during phase 1/2 study. The class given is functional.
The species named for data set [6] is Homo sapiens. The data set can be described thus: Toxicity in patient with EGFR T790M mutant NSCLC assessed as drug discontinuation rate at 500 mg BID during phase 1/2 study. The format is organism-based. The following applies: in vivo.

Consider `C=CC(=O)Nc1cccc(Nc2nc(Nc3ccc(N4CCN(C(C)=O)CC4)cc3OC)ncc2C(F)(F)F)c1` [ROCILETINIB], for which the Activity in the data set filed under Homo sapiens [1] came out at 90%; in the data set filed under Homo sapiens [2], 2.5%; in the data set listed under Homo sapiens [3], 37%; in the data set filed under Homo sapiens [4] it was 17%; in the data set filed under Homo sapiens [5], 60%; in the data set filed under Homo sapiens [6], 2.5%.

Values taken from ChEMBL document CHEMBL4270493, “Recent updates on third generation EGFR inhibitors and emergence of fourth generation EGFR inhibitors to combat C797S resistance” (Eur J Med Chem, 2017).
